# According to US4244883A, “2a,2b-Dihomo-15-alkyl-PGF2β compounds” (The Upjohn Company, priority 1979, dated 1981):
# What was measured:
# gastric lesions = experiment: Cytoprotective effects: inhibition of ethanol-induced gastric lesions (ulcers) in female rats; format: in vivo, rat; conditions: 2 mg/kg oral; for inhibition at 2 mg/kg: Rattus norvegicus, female rats 205-220 g, 30 min before 1 ml ethanol (80%) orally, examined 1 h after ethanol, read-out: % Inhibition (percent reduction in the number of gastric lesions in the treated group as compared to the control group); for cytoprotective effect (in words): female rats, 80% ethanol-induced gastric lesions
# Protocol: Female rats of 205-220 g are deprived of food during the morning. At 1500 hrs, water is removed and the animals are placed in individual cages which prevent them from consuming hair or feces. The following morning, the prostaglandin analogs are administered orally at a fixed dose of 2 mg/kg in 1 ml of water containing 5% ethanol and 1% emulphor. Emulphor EL-620 is used. Thirty minutes later, 1 ml of ethanol (80%) is given orally to induce gastric lesions. One hour after ethanol administration, the animals are sacrificed with carbon dioxide, their stomachs disected out and opened along the greater curvature. Visual examination with a binocular magnifier is undertaken to determine the presence of necrotic ulcerations. The average number of ulcers per stomach is recorded. The control group of rats receiving only vehicle (ethanol 5%, emulphor 1% in water) prior to the administration of 80% ethanol is employed. From the number of ulcerations in control group animals, a percent inhibition is determined which is the percent reduction in the number of gastric lesions in the treated group as compared to the control group.
# Following the procedure of Example 1, 2a,2b-dihomo-15-epi-PGF2β, methyl ester is compared for gastrointestinal cytoprotective activity with 2a,2b-dihomo-15-epi-15-methyl-PGF2β, methyl ester.
# intestinal lesions = conditions: rat; pre-treatment; Robert, et al., Gastroenterology 69:1045 (1974); cited from earlier work
Structure (SMILES),inhibition at 2 mg/kg (gastric lesions),cytoprotective effect (in words) (gastric lesions),effect on indomethacin-induced intestinal lesions (in words) (intestinal lesions)
"CCCCC[C@](C)(O)/C=C/[C@@H]1[C@@H](C/C=C\CCCCCC(=O)OC)[C@H](O)C[C@H]1O [2a,2b-dihomo-15-methyl-PGF2β, methyl ester]",96%,virtually totally cytoprotective,
"CCCCC[C@H](O)/C=C/[C@@H]1[C@@H](C/C=C\CCCCCC(=O)OC)[C@H](O)C[C@H]1O [2a,2b-dihomo-PGF2β, methyl ester]",32%,only modest cytoprotective effects,
"CCCCC[C@@](C)(O)/C=C/[C@@H]1[C@@H](C/C=C\CCCCCC(=O)OC)[C@H](O)C[C@H]1O [2a,2b-dihomo-15-epi-15-methyl-PGF2β, methyl ester]",100%,totally cytoprotective,
"CCCCC[C@@H](O)/C=C/[C@@H]1[C@@H](C/C=C\CCCCCC(=O)OC)[C@H](O)C[C@H]1O [2a,2b-dihomo-15-epi-PGF2β, methyl ester]",2%,negligable cytoprotective effects,
CCCCC[C@H](O)/C=C/[C@H]1[C@H](O)CC(=O)[C@@H]1C/C=C\CCCC(=O)O [PGE2],,,effective in reducing indomethacin-inducedintestinal lesions
